Laboratory results as given in publication PMC2990587, “Central nervous system penetration and enhancement of temozolomide activity in childhood medulloblastoma models by poly(ADP-ribose) polymerase inhibitor AG-014699” (British Journal of Cancer, 2010).
Entries after “also recorded” stand apart in the source; their conditions may differ.

Columns and labels:
[1] = AG-014447 distribution in plasma, brain and D283Med xenograft of tumour-bearing mice (LC/MS/MS); assay type: in vivo, mouse; details: for AUC in tumour: D283Med xenograft
Protocol: One or four daily doses of PARP inhibitor AG-014699 (1 mg kg^−1 intraperitoneally (i.p.)) were given to CD-1 nude mice bearing established D283Med xenografts. At 0.5, 2, 6 and 24 h after the initial or fourth daily dose of AG-014699, three animals per time point were bled by cardiac puncture under general anaesthesia, and then killed. Plasma was separated from the blood samples using standard methods and stored at −80°C. The brains and tumours were removed, snap frozen in liquid nitrogen and stored at −80°C before analysis. Blood, tumour and brain tissue were removed from three untreated control animals and processed in the same way.
AG-014699 is the phosphate salt of AG-014447 and rapidly liberates the parent drug following injection. The concentration of AG-014447 was determined in plasma and tissue homogenates (1 : 4 (w v^−1) in PBS) of brain and tumour after protein precipitation with acetonitrile by liquid chromatography/mass spectrometry/mass spectrometry using a turbo ion spray interface and multiple reaction monitoring in the positive ion mode (API 4000; Applied Biosystems, Warrington, Cheshire, UK) and a deuterated internal standard as described previously ([Plummer et al, 2008]). The lower limit of quantitation was 1 ng ml^−1. Plasma pharmacokinetics of AG-014447 were analysed using a non-compartmental approach in WinNonlin version 5.2.

[2] = design: method as in Thomas et al, 2007; details: ref Thomas et al, 2007; cited from earlier work
[3] = tested on: D425Med cells; test: XTT growth inhibition, D425Med; assay type: cell-based, human; details: for GI50: D425Med, temozolomide alone, XTT, 3 days
Protocol: (§1) Cell growth inhibition was estimated in exponentially growing D425Med, D283Med and D384Med cells in 96-well plates. Seeding densities of 1 × 10^3, 3 × 10^3 and 3 × 10^3 cells, respectively, ensured exponential growth for the duration of the experiment. At 24 h (D384Med) or 48 h (D283Med and D425Med) after seeding, cells were exposed to varying concentrations of temozolomide, as described in the Results, in the presence or absence of 0.4 μM AG-014699, a concentration previously shown to enhance temozolomide cytotoxicity in adult tumour cell lines ([Thomas et al, 2007]). After 3 days (D425Med and D384Med) or 5 days (D283Med) of culture (equivalent to approximately three cell divisions), the cell viability was quantified using an XTT cell proliferation kit assay (Roche, Mannheim, Germany), according to the manufacturer's instructions. Cell growth was expressed as a percentage in relation to DMSO or 0.4 μM AG-014699-alone controls. The concentration of temozolomide, alone or in combination with AG-014699, that inhibited growth by 50% (GI50) was calculated from computer-generated curves (GraphPad Software, San Diego, CA, USA). The potentiation factor50 (PF50) is defined as the ratio of […]. All data were from at least three independent experiments.

[4] = tested on: D283Med cells; test: XTT growth inhibition, D283Med; assay type: cell-based, human
Protocol: as §1

[5] = tested on: D384Med cells; test: XTT growth inhibition, D384Med; assay type: cell-based, human; details: Homo sapiens, D384 Med, 72 h; D384Med; temozolomide alone; XTT, 3 days
Protocol: as §1

[6] = tested on: D425Med xenografts; test: Tumour growth inhibition in vivo, D425Med xenografts; design: species or system mouse
Source text: (§2) All of the in vivo experiments were reviewed and approved by the relevant institutional animal welfare committees, and performed according to national law. Female athymic nude mice (CD1 nu/nu; Charles River, Margate, UK) used for anti-tumour studies were maintained and handled in isolators under specific pathogen-free conditions. […], […] and […] (1 × 10^7 exponentially growing cells per mouse, harvested and implanted in growth media) xenografts were established by sub-cutaneous implantation into CD-1 nude mice. […] Treatment was initiated when sufficient number of mice had established tumours to allow randomisation into treatment groups: day 17 for […], day 26 for […] and day 32 for […]. […] For drug combinations, AG-014699 was administered immediately after administering temozolomide. […] Tumour growth delay (TGD) is defined as the time to RTV4 in drug-treated mice compared with the time to RTV4 in control (vehicle alone) mice. Median tumour volume is shown, rather than the mean, as this is generally accepted as the most statistically reliable representation of the average growth rate of tumours in a small group of mice, if a normal distribution of tumour volumes cannot be assumed. Tumour growth delay was calculated as: median time to RTV4 in treated group-median time to RTV4 in control group.

[7] = tested on: D283Med xenografts; test: Tumour growth inhibition in vivo, D283Med xenografts; design: species or system mouse; details: for Complete regressions: mice with regression/group
Source text: as §2

[8] = tested on: D384Med xenografts; test: Tumour growth inhibition in vivo, D384Med xenografts; design: species or system mouse; details: for Complete regressions: mice with regression/group, transient
Source text: as §2

[9] = Toxicity (body weight loss) in tumour-bearing mice; assay type: in vivo, mouse; details: daily x5; TMZ 68 mg kg−1 p.o., AG-014699 1 mg kg−1 i.p.
Protocol: CD-1 nude mice bearing palpable, established subcutaneous D425Med, D283Med and D384Med xenografts were treated with normal saline (control animals), temozolomide (68 mg kg^−1 per os (p.o.)) or AG-014699 (1 mg kg^−1 i.p.) alone or in combination, daily for 5 days (five mice per group). For drug combinations, AG-014699 was administered immediately after administering temozolomide. Tumour volumes, determined from two-dimensional calliper measurements and the equation a^2 × b/2 (where a is the […] of the tumour), were monitored for the experimental period (up to 100 days), and are presented for each group of mice as median relative tumour volume (RTV) values. Relative tumour volume 1 is the tumour volume on the initial day of treatment (day 0), and RTV4 is the tumour volume four times that on the initial day of treatment. Tumour growth delay (TGD) is defined as the time to RTV4 in drug-treated mice compared with the time to RTV4 in control (vehicle alone) mice. Median tumour volume is shown, rather than the mean, as this is generally accepted as the most statistically reliable representation of the average growth rate of tumours in a small group of mice, if a normal distribution of tumour volumes cannot be assumed. Tumour growth delay was calculated as: median time to RTV4 in treated group−median time to RTV4 in control group. Percentage enhancement was calculated as 100 × (TGD TMZ+AG-014699/TGD TMZ alone)−100 ([Calabrese et al, 2004]).

Question: Which “Levels in the brain relative to plasma” value ([1]; 6 h after fourth daily dose 1 mg kg−1 i.p.) does the source give for `CNCc1ccc(-c2[nH]c3cc(F)cc4c3c2CCNC4=O)cc1` [AG-014447] here?
Answer: only marginally greater than plasma levels

Question: What about the “Brain level relative to plasma level” value ([1]; 24 h after single dose 1 mg kg−1 i.p.) of the same molecule?
Answer: up to 10 fold

Question: And the AUC in tumour ([1]; day 1, 1 mg kg−1 i.p.)?
Answer: 582.0 µmol·min/L

Question: And the AUC in tumour ([1]; day 4, 1 mg kg−1 i.p. daily)?
Answer: 509.6 µmol·min/L

Question: And the AUC in brain ([1]; day 1, 1 mg kg−1 i.p.)?
Answer: 37.0 µmol·min/L

Question: And the AUC in plasma ([1]; day 1, 1 mg kg−1 i.p.)?
Answer: 26.4 µmol·min/L

Question: What about the Plasma half-life ([1]; day 1, 1 mg kg−1 i.p.) of the same molecule?
Answer: 4.98 h

Question: What about the AUC in brain ([1]; day 4, 1 mg kg−1 i.p. daily) of the same molecule?
Answer: 14.7 µmol·min/L

Question: And the AUC in plasma ([1]; day 4, 1 mg kg−1 i.p. daily)?
Answer: 21.9 µmol·min/L

Question: And the Plasma half-life ([1]; day 4, 1 mg kg−1 i.p. daily)?
Answer: 4.23 h

Question: And the “Plasma level of AG-014447 at 24 h” value ([1]; first dose AG-014699 1 mg kg−1 i.p., LLOQ 1 ng ml−1)?
Answer: below the level of quantitation

Question: What about the “c log D” value [2] of the same molecule?
Answer: 0.7

Question: What about the pKa [2] of the same molecule?
Answer: 9.6

Question: Which “Relative sensitivity to temozolomide (times more sensitive)” value ([3]; D425Med compared with D384Med, in culture) does the source give for `Cn1nnc2c(C(N)=O)ncn2c1=O` [temozolomide] here?
Answer: ~25 times

Question: And the GI50 [3]?
Answer: 9.3 ± 7.5 µM

Question: What about the GI50 ([3]; Homo sapiens, D425 Med, 72 h) of the same molecule?
Answer: 9 µM

Question: What about the “Relative sensitivity to temozolomide (times less sensitive)” value ([4]; D283Med compared with D384Med) of the same molecule?
Answer: nearly four times less sensitive

Question: And the “Relative sensitivity to temozolomide (times less sensitive)” value ([4]; D283Med compared with D425Med)?
Answer: ~100 times

Question: And the GI50 ([4]; Homo sapiens, D283 Med, 120 h, D283Med, temozolomide alone, XTT, 5 days)?
Answer: 807 ± 239 µM

Question: And the GI50 [5]?
Answer: 220 ± 42 µM

Question: And the “Median nadir body weight (% starting weight)” value ([6]; D425Med-bearing mice, daily x5, TMZ 68 mg kg−1 p.o., AG-014699 1 mg kg−1 i.p.)?
Answer: 96 % starting weight

Question: And the “Complete tumour regressions (including not sustained)” value ([6]; D425Med, daily x5)?
Answer: complete tumour regressions seen in all mice; also recorded: all mice showing complete tumour regressions

Question: And the “Median time to RTV4” value ([6]; D425Med, daily x5, TMZ 68 mg kg−1 p.o., AG-014699 1 mg kg−1 i.p.)?
Answer: >100 days

Question: What about the Complete regressions ([6]; D425Med, mice with regression/group, sustained for 100 days) of the same molecule?
Answer: two out of five

Question: And the Tumour growth delay ([6]; D425Med, versus control time to RTV4)?
Answer: >81 days

Question: What about the “Median nadir body weight (% starting weight)” value ([7]; D283Med-bearing mice, daily x5, TMZ 68 mg kg−1 p.o., AG-014699 1 mg kg−1 i.p.) of the same molecule?
Answer: 94 % starting weight

Question: And the “Median time to RTV4” value ([7]; D283Med, daily x5, TMZ 68 mg kg−1 p.o., AG-014699 1 mg kg−1 i.p.)?
Answer: 9 days

Question: And the Complete regressions ([7]; D283Med)?
Answer: no regressions observed in any mice

Question: What about the Complete regressions ([7]; D283Med, listed as TMZ) of the same molecule?
Answer: 0/5

Question: What about the Tumour growth delay ([7]; D283Med, versus control time to RTV4) of the same molecule?
Answer: 2 days

Question: And the “Median nadir body weight (% starting weight)” value ([8]; D384Med-bearing mice, daily x5, TMZ 68 mg kg−1 p.o., AG-014699 1 mg kg−1 i.p.)?
Answer: 97 % starting weight

Question: And the “Median time to RTV4” value ([8]; D384Med, daily x5, TMZ 68 mg kg−1 p.o., AG-014699 1 mg kg−1 i.p.)?
Answer: 44.5 days

Question: And the Complete regressions ([8]; D384Med)?
Answer: one transient complete response

Question: And the Complete regressions ([8]; D384Med, listed as TMZ)?
Answer: 1/5

Question: What about the Tumour growth delay ([8]; D384Med, versus control time to RTV4) of the same molecule?
Answer: 28.5 days

Question: What about the Body weight loss [9] of the same molecule?
Answer: 5±4%
